Reference: patent US20240376163A1, “PEPTIDE FOR INHIBITING CALCINEURIN AND USE THEREOF” (Seoul National University R&DB Foundation, priority 2023, published 2024)

Tested on: Jurkat T cells
Assay: mRNA sequencing of activated Jurkat T cells
Assay type: cell-based, human
Details: Jurkat T cells, P + I

In the case of C=CC[C@@H]1/C=C(\C)C[C@H](C)C[C@H](OC)[C@H]2O[C@@](O)(C(=O)C(=O)N3CCCC[C@H]3C(=O)O[C@H](/C(C)=C/[C@@H]3CC[C@@H](O)[C@H](OC)C3)[C@H](C)[C@@H](O)CC1=O)[C@H](C)C[C@@H]2OC [FK506, Tacrolimus, reference compound], the “ABTB2 FPKM” value is reported as 2.549 FPKM, the “ACAP1 FPKM” value is reported as 35.261 FPKM and the “ACSF3 FPKM” value is reported as 22.755 FPKM. The “ADA FPKM” value was 74.531 FPKM, the “ADAMTS17 FPKM” value was 0.843 FPKM and the “ADCYAP1 FPKM” value was 3.646 FPKM. The “ADORA2A FPKM” value was 0.998 FPKM, the “AFF2 FPKM” value was 4.374 FPKM and the “AGK FPKM” value was 14.029 FPKM. For the same compound, the “ALDH1A2 FPKM” value was 7.041 FPKM, the “ALOX5AP FPKM” value was 92.971 FPKM and the “ANKEF1 FPKM” value was 3.081 FPKM. For the same compound, the “ANO8 FPKM” value was 3.26 FPKM, the “ANTXR2 FPKM” value was 53.159 FPKM and the “APH1B FPKM” value was 5.12 FPKM. For the same compound, the “APOBEC3B-AS1 FPKM” value was 13.251 FPKM, the “APOBEC3F FPKM” value was 5.861 FPKM and the “APOBEC3G FPKM” value was 8.803 FPKM. For the same compound, the “APOL1 FPKM” value was 4.036 FPKM, the “ARHGAP4 FPKM” value was 15.97 FPKM and the “ARHGAP25 FPKM” value was 3.447 FPKM. The “ARHGAP31 FPKM” value was 10.889 FPKM, the “ARHGEF3 FPKM” value was 8.637 FPKM and the “ARPP21 FPKM” value was 1.29 FPKM. For the same compound, the “ASB13 FPKM” value was 2.277 FPKM, the “ASNS FPKM” value was 20.436 FPKM and the “ATHL1 FPKM” value was 4.597 FPKM. The “ATP2A3 FPKM” value was 47.81 FPKM, the “ATP6V0A4 FPKM” value was 21.385 FPKM and the “ATP6V1B2 FPKM” value was 50.672 FPKM. The “ATPAF1 FPKM” value was 11.764 FPKM, the “AVPR2 FPKM” value was 1.21 FPKM and the “B2M FPKM” value was 1155.981 FPKM. The “BAHCC1 FPKM” value was 1 FPKM, the “BCL2A1 FPKM” value was 21.118 FPKM and the “BCL2L1 FPKM” value was 39.402 FPKM. The “BCL3 FPKM” value was 14.57 FPKM, the “BCL6 FPKM” value was 15.181 FPKM and the “BCL7A FPKM” value was 12.185 FPKM. The “BCL11B FPKM” value was 3.688 FPKM, the “BEND6 FPKM” value was 1.416 FPKM and the “BIN1 FPKM” value was 2.374 FPKM. For the same compound, the “BIRC3 FPKM” value was 30.767 FPKM, the “C10orf55 FPKM” value was 7.632 FPKM and the “C11orf74 FPKM” value was 0.365 FPKM. For the same compound, the “C21orf58 FPKM” value was 5.847 FPKM, the “CABP1 FPKM” value was 1.201 FPKM and the “CAMK2D FPKM” value was 5.855 FPKM. The “CARHSP1 FPKM” value was 20.082 FPKM, the “CBFA2T3 FPKM” value was 12.236 FPKM and the “CBLB FPKM” value was 8.881 FPKM. The “CBS FPKM” value was 3.935 FPKM, the “CBX2 FPKM” value was 2.786 FPKM and the “CCDC15 FPKM” value was 3.535 FPKM. For the same compound, the “CCL3 FPKM” value was 0 FPKM, the “CCL3L3 FPKM” value was 0 FPKM and the “CCL20 FPKM” value was 0 FPKM. For the same compound, the “CCND3 FPKM” value was 30.402 FPKM, the “CCNE2 FPKM” value was 6.298 FPKM and the “CD1B FPKM” value was 4.115 FPKM. The “CD1E FPKM” value was 4.975 FPKM, the “CD70 FPKM” value was 3.005 FPKM and the “CD82 FPKM” value was 171.933 FPKM. The “CD97 FPKM” value was 19.394 FPKM, the “CD200 FPKM” value was 0 FPKM and the “CD274 FPKM” value was 7.13 FPKM. For the same compound, the “CDKN1A FPKM” value was 39.264 FPKM, the “CDKN2D FPKM” value was 17.642 FPKM and the “CECR1 FPKM” value was 5.304 FPKM. For the same compound, the “CENPM FPKM” value was 13.201 FPKM, the “CEP70 FPKM” value was 14.887 FPKM and the “CERKL FPKM” value was 13.458 FPKM. For the same compound, the “CFLAR FPKM” value was 3.438 FPKM, the “CHEK2 FPKM” value was 8.907 FPKM and the “CHPF2 FPKM” value was 36.42 FPKM. For the same compound, the “CHPF FPKM” value was 9.759 FPKM, the “CHRNA3 FPKM” value was 4.293 FPKM and the “CHST12 FPKM” value was 13.527 FPKM. The “CNN2 FPKM” value was 30.77 FPKM, the “COL27A1 FPKM” value was 4.463 FPKM and the “CPD FPKM” value was 23.208 FPKM. For the same compound, the “CREB3L2 FPKM” value was 5.62 FPKM, the “CREB5 FPKM” value was 0.577 FPKM and the “CSF1 FPKM” value was 1.706 FPKM. The “CSF2 FPKM” value was 0 FPKM, the “CXCL8 FPKM” value was 0.937 FPKM and the “CXCL11 FPKM” value was 0.695 FPKM. For the same compound, the “CXCR4 FPKM” value was 38.979 FPKM, the “CYTH1 FPKM” value was 33.17 FPKM and the “DBP FPKM” value was 2.396 FPKM. The “DCBLD2 FPKM” value was 13.786 FPKM, the “DENND5A FPKM” value was 24.792 FPKM and the “DNAJB5 FPKM” value was 19.238 FPKM. For the same compound, the “DSTYK FPKM” value was 3.501 FPKM, the “DTL FPKM” value was 5.862 FPKM and the “DTX1 FPKM” value was 4.414 FPKM. The “DUSP6 FPKM” value was 9.728 FPKM, the “DUSP10 FPKM” value was 11.981 FPKM and the “E2F7 FPKM” value was 4.531 FPKM. For the same compound, the “ECE1 FPKM” value was 20.046 FPKM, the “EFHD2 FPKM” value was 180.233 FPKM and the “EGR1 FPKM” value was 218.444 FPKM. For the same compound, the “EGR2 FPKM” value was 11.435 FPKM, the “EHBP1L1 FPKM” value was 7.073 FPKM and the “EMP1 FPKM” value was 4.613 FPKM. For the same compound, the “ETS1 FPKM” value was 50.032 FPKM, the “FADS2 FPKM” value was 67.903 FPKM and the “FAM64A FPKM” value was 7.456 FPKM. The “FAT1 FPKM” value was 13.036 FPKM, the “FBLN2 FPKM” value was 3.348 FPKM and the “FKBP5 FPKM” value was 8.687 FPKM. The “FLI1 FPKM” value was 13.241 FPKM, the “FOSL1 FPKM” value was 10.499 FPKM and the “FOSL2 FPKM” value was 2.204 FPKM. For the same compound, the “FXYD5 FPKM” value was 41.346 FPKM, the “FYN FPKM” value was 16.523 FPKM and the “GAD1 FPKM” value was 2.246 FPKM. For the same compound, the “GFOD1 FPKM” value was 4.187 FPKM, the “GFRA1 FPKM” value was 0.991 FPKM and the “GKAP1 FPKM” value was 2.692 FPKM. For the same compound, the “GLRB FPKM” value was 1.62 FPKM, the “GLRX FPKM” value was 25.315 FPKM and the “GNG4 FPKM” value was 5.365 FPKM. For the same compound, the “GPC2 FPKM” value was 5.785 FPKM, the “GPR17 FPKM” value was 0.258 FPKM and the “GPR68 FPKM” value was 8.916 FPKM. The “GSE1 FPKM” value was 17.37 FPKM, the “GTDC1 FPKM” value was 4.629 FPKM and the “GXYLT2 FPKM” value was 5.443 FPKM. For the same compound, the “GZMB FPKM” value was 513.528 FPKM, the “HCAR1 FPKM” value was 7.167 FPKM and the “HIVEP3 FPKM” value was 20.041 FPKM. The “HLA-A FPKM” value was 181.069 FPKM, the “HLA-B FPKM” value was 116.079 FPKM and the “HPGD FPKM” value was 6.064 FPKM. For the same compound, the “IFIT3 FPKM” value was 6.495 FPKM, the “IKZF2 FPKM” value was 8.561 FPKM and the “IL2 FPKM” value was 0.287 FPKM. The “IL4R FPKM” value was 9.842 FPKM, the “IL10RA FPKM” value was 2.828 FPKM and the “IL15 FPKM” value was 2.654 FPKM. The “IL15RA FPKM” value was 5.979 FPKM, the “IL21R FPKM” value was 2.244 FPKM and the “IL21R-AS1 FPKM” value was 1.927 FPKM. For the same compound, the “IL27RA FPKM” value was 10.817 FPKM, the “IQCJ-SCHIP1 FPKM” value was 1.657 FPKM and the “IQGAP2 FPKM” value was 4.857 FPKM. The “IRF1 FPKM” value was 141.607 FPKM, the “IRF2 FPKM” value was 34.99 FPKM and the “IRF4 FPKM” value was 0.423 FPKM. The “IRF7 FPKM” value was 21.167 FPKM, the “ITGA4 FPKM” value was 39.099 FPKM and the “ITGAL FPKM” value was 10.212 FPKM. For the same compound, the “ITK FPKM” value was 58.558 FPKM, the “JAK2 FPKM” value was 5.248 FPKM and the “KCNK1 FPKM” value was 10.967 FPKM. The “KIAA0101 FPKM” value was 21.727 FPKM, the “KIAA0247 FPKM” value was 8.032 FPKM and the “KIR3DX1 FPKM” value was 3.048 FPKM. For the same compound, the “KLF10 FPKM” value was 25.627 FPKM, the “KLF12 FPKM” value was 6.506 FPKM and the “KREMEN1 FPKM” value was 3.122 FPKM. The “LAIR1 FPKM” value was 8.298 FPKM, the “LDLRAD4 FPKM” value was 6.21 FPKM and the “LEF1-AS1 FPKM” value was 3.747 FPKM. The “LEF1 FPKM” value was 74.102 FPKM, the “LGMN FPKM” value was 1.42 FPKM and the “LIF FPKM” value was 0.143 FPKM. For the same compound, the “LIMS2 FPKM” value was 4.122 FPKM, the “LINC00659 FPKM” value was 10.239 FPKM and the “LINC01260 FPKM” value was 7.672 FPKM. For the same compound, the “LMNA FPKM” value was 4.62 FPKM, the “LMO1 FPKM” value was 1.094 FPKM and the “LOC653712 FPKM” value was 4.163 FPKM. The “LOC100506688 FPKM” value was 1.625 FPKM, the “LOC101926963 FPKM” value was 4.541 FPKM and the “LOC101927497 FPKM” value was 9.413 FPKM. For the same compound, the “LPAR6 FPKM” value was 8.449 FPKM, the “LRRC8C FPKM” value was 10.058 FPKM and the “LRRC20 FPKM” value was 3.843 FPKM. The “LTBP4 FPKM” value was 8.427 FPKM, the “LUCATI FPKM” value was 12.516 FPKM and the “MAFF FPKM” value was 16.977 FPKM. For the same compound, the “MAGEA4 FPKM” value was 3.908 FPKM, the “MAL FPKM” value was 2.664 FPKM and the “MAMLD1 FPKM” value was 5.995 FPKM. The “MAP3K7CL FPKM” value was 2.247 FPKM, the “MAST4 FPKM” value was 3.498 FPKM and the “MAZ FPKM” value was 112.102 FPKM. For the same compound, the “MCM2 FPKM” value was 22.07 FPKM, the “MCTP2 FPKM” value was 5.326 FPKM and the “METRN FPKM” value was 1.779 FPKM. For the same compound, the “MFAP4 FPKM” value was 0.663 FPKM, the “MGAT4A FPKM” value was 8.906 FPKM and the “MICAL2 FPKM” value was 1.763 FPKM. The “MIR22HG FPKM” value was 9.248 FPKM, the “MIR3652 FPKM” value was 547.182 FPKM and the “MIR6775 FPKM” value was 19.643 FPKM. The “MIR6821 FPKM” value was 13.626 FPKM.
